In patent US20180110754A1, “CENICRIVIROC FOR THE TREATMENT OF FIBROSIS” (Tobira Therapeutics, Inc., priority 2015, published 2018):

Legend:
APRI and FIB-4 scores = test: Study 202 post-hoc APRI and FIB-4 fibrosis index scores; assay type: in vivo, human
Procedure: APRI and FIB-4 scores were calculated. Change in score category from baseline (BL) to Weeks 24 and 48 was assessed in patients with non-missing data. Correlations between changes from BL in APRI and FIB-4 scores, and MCP-1 (CCR2 ligand) and sCD14 (inflammatory biomarker) levels were evaluated.

[1] = Study 202: fasting metabolic laboratory parameters; assay type: in vivo; settings: through Week 48
Source text: All abnormalities in total cholesterol, LDL cholesterol, triglycerides, or glucose were Grade 1 or Grade 2.
Mean baseline values and changes from baseline in HbA1c, HOMA-IR, fasting LDL, fasting HDL, fasting total cholesterol, fasting total cholesterol/HDL ratio, and fasting triglycerides are shown in Table 36.

[2] = All CVC (N = 115), EFV (N = 28)

## CCCCOCCOc1ccc(-c2ccc3c(c2)/C=C(/C(=O)Nc2ccc([S@@+]([O-])Cc4cncn4CCC)cc2)CCCN3CC(C)C)cc1 [CVC, (S)-8-[4-(2-Butoxyethoxy)phenyl]-1-isobutyl-N-(4-{[(1-propyl-1H-imidazol-5-yl)methyl]sulfinyl}phenyl)-1,2,3,4-tetrahydro-1-benzazocine-5-carboxamide]
APRI and FIB-4 scores; Baseline
  Patients in APRI category 0.5-1.5: 14%
  Patients in APRI category >1.5: 2%
  Patients in FIB-4 category 1.45-3.25: 17%
  Patients in FIB-4 category <1.45: 82%
  Patients in FIB-4 category >3.25: 1%
APRI and FIB-4 scores; Baseline, CVC pooled 100/200 mg or EFV
  Patients in APRI category <0.5: 84%
APRI and FIB-4 scores; Week 24
  Patients in APRI category 0.5-1.5: 7%
  Patients in APRI category <0.5: 93%
  Patients in FIB-4 category 1.45-3.25: 7%
  Patients in FIB-4 category <1.45: 93%
  Patients with APRI decreased 1 category from baseline: 14%
  Patients with FIB-4 decreased 1 category from baseline: 13%
APRI and FIB-4 scores; Week 48
  Patients in APRI category 0.5-1.5: 8%
  Patients in APRI category <0.5: 91%
  Patients in APRI category >1.5: 1%
  Patients in FIB-4 category 1.45-3.25: 5%
  Patients in FIB-4 category <1.45: 94%
  Patients in FIB-4 category >3.25: 1%
  Patients with APRI decreased 1 category from baseline: 10%
  Patients with FIB-4 decreased 1 category from baseline: 14%
APRI and FIB-4 scores; all CVC-treated subjects (pooled 100 mg and 200 mg)
  Subjects with improvements in APRI and FIB-4 scores over time: ≥ 10%
[1]; [2]
  Any graded (Grade 1-4) fasting laboratory abnormality, n subjects: 16
  Fasting LDL cholesterol abnormality, any grade, n subjects: 6
  Fasting LDL cholesterol, worst Grade 1, n subjects: 3
  Fasting LDL cholesterol, worst Grade 2, n subjects: 3
  Fasting LDL cholesterol, worst Grade 3, n subjects: 0
  Fasting LDL cholesterol, worst Grade 4, n subjects: 0
  Fasting glucose (serum, high) abnormality, any grade, n subjects: 5
  Fasting glucose (serum, high), worst Grade 1, n subjects: 3
  Fasting glucose (serum, high), worst Grade 2, n subjects: 2
  Fasting glucose (serum, high), worst Grade 3, n subjects: 0
  Fasting glucose (serum, high), worst Grade 4, n subjects: 0
  Fasting laboratory abnormality, worst Grade 1, n subjects: 9
  Fasting laboratory abnormality, worst Grade 2, n subjects: 7
  Fasting laboratory abnormality, worst Grade 3, n subjects: 0
  Fasting laboratory abnormality, worst Grade 4, n subjects: 0
  Fasting total cholesterol abnormality, any grade, n subjects: 8
  Fasting total cholesterol, worst Grade 1, n subjects: 5
  Fasting total cholesterol, worst Grade 2, n subjects: 3
  Fasting total cholesterol, worst Grade 3, n subjects: 0
  Fasting total cholesterol, worst Grade 4, n subjects: 0
  Fasting triglycerides abnormality, any grade, n subjects: 1
  Fasting triglycerides, worst Grade 1, n subjects: 0
  Fasting triglycerides, worst Grade 2, n subjects: 1
  Fasting triglycerides, worst Grade 3, n subjects: 0
  Fasting triglycerides, worst Grade 4, n subjects: 0
[1]; CVC 100 mg (N = 58)
  Any graded (Grade 1-4) fasting laboratory abnormality, n subjects: 4 (7%)
  Fasting LDL cholesterol abnormality, any grade, n subjects: 2 (3%)
  Fasting LDL cholesterol, worst Grade 1, n subjects: 1 (2%)
  Fasting LDL cholesterol, worst Grade 2, n subjects: 1 (2%)
  Fasting LDL cholesterol, worst Grade 3, n subjects: 0
  Fasting LDL cholesterol, worst Grade 4, n subjects: 0
  Fasting glucose (serum, high) abnormality, any grade, n subjects: 0
  Fasting glucose (serum, high), worst Grade 1, n subjects: 0
  Fasting glucose (serum, high), worst Grade 2, n subjects: 0
  Fasting glucose (serum, high), worst Grade 3, n subjects: 0
  Fasting glucose (serum, high), worst Grade 4, n subjects: 0
  Fasting laboratory abnormality, worst Grade 1, n subjects: 3 (5%)
  Fasting laboratory abnormality, worst Grade 2, n subjects: 1 (2%)
  Fasting laboratory abnormality, worst Grade 3, n subjects: 0
  Fasting laboratory abnormality, worst Grade 4, n subjects: 0
  Fasting total cholesterol abnormality, any grade, n subjects: 3 (5%)
  Fasting total cholesterol, worst Grade 1, n subjects: 3 (5%)
  Fasting total cholesterol, worst Grade 2, n subjects: 0
  Fasting total cholesterol, worst Grade 3, n subjects: 0
  Fasting total cholesterol, worst Grade 4, n subjects: 0
  Fasting triglycerides abnormality, any grade, n subjects: 0
  Fasting triglycerides, worst Grade 1, n subjects: 0
  Fasting triglycerides, worst Grade 2, n subjects: 0
  Fasting triglycerides, worst Grade 3, n subjects: 0
  Fasting triglycerides, worst Grade 4, n subjects: 0
[1]; CVC 200 mg (N = 57)
  Any graded (Grade 1-4) fasting laboratory abnormality, n subjects: 12
  Fasting LDL cholesterol abnormality, any grade, n subjects: 4
  Fasting LDL cholesterol, worst Grade 1, n subjects: 2
  Fasting LDL cholesterol, worst Grade 2, n subjects: 2
  Fasting LDL cholesterol, worst Grade 3, n subjects: 0
  Fasting LDL cholesterol, worst Grade 4, n subjects: 0
  Fasting glucose (serum, high) abnormality, any grade, n subjects: 5
  Fasting glucose (serum, high), worst Grade 1, n subjects: 3
  Fasting glucose (serum, high), worst Grade 2, n subjects: 2
  Fasting glucose (serum, high), worst Grade 3, n subjects: 0
  Fasting glucose (serum, high), worst Grade 4, n subjects: 0
  Fasting laboratory abnormality, worst Grade 1, n subjects: 6
  Fasting laboratory abnormality, worst Grade 2, n subjects: 6
